This is an account of results in ChEMBL document CHEMBL5120880, “Peptidomimetics: An Overview of Recent Medicinal Chemistry Efforts toward the Discovery of Novel Small Molecule Inhibitors” (J Med Chem, 2022).

Assay [1] deals with Middle East respiratory syndrome-related coronavirus. The assay can be described thus: Antiviral activity against MERS-CoV by cell based assay. It is filed as functional, organism-based.
The test system of a further assay is SARS-CoV-2. The assay can be described thus: microbe, parasite or virus in culture. Particulars: Severe acute respiratory syndrome coronavirus 2.
The test system of assay [2] is Feline infectious peritonitis virus. The assay can be described thus: microbe, parasite or virus in culture. Particulars: Alphacoronavirus 1.
The subject of assay [3] is Escherichia coli. The assay can be described thus: Antibacterial activity against Escherichia coli BW25113 assessed as minimal inhibitory concentration by microdilution assay. It is filed as functional.
In another assay the test system is Salmonella typhimurium. The assay can be described thus: Antibacterial activity against Salmonella typhimurium TA100 assessed as minimal inhibitory concentration by microdilution assay. The format is functional, Salmonella enterica subsp. enterica serovar Typhimurium. Particulars: Salmonella enterica. Background: In broth dilution the organism is exposed to a series of concentrations in liquid medium.

The test system of the next assay is Bacillus subtilis. The assay can be described thus: Antibacterial activity against Bacillus subtilis DSM10 assessed as minimal inhibitory concentration by microdilution assay. The format is functional.
The subject of a further assay is Mycolicibacterium phlei. The assay can be described thus: Antibacterial activity against Mycobacterium phlei DSM750 assessed as minimal inhibitory concentration by microdilution assay. It is filed as functional.
In assay [4] the test system is Middle East respiratory syndrome-related coronavirus. The assay can be described thus: microbe, parasite or virus in culture.
Another assay has as its system SARS-CoV. The assay can be described thus: microbe, parasite or virus in culture. Particulars: Severe acute respiratory syndrome-related coronavirus.
For another assay, the system named is Murine hepatitis virus. The assay can be described thus: microbe, parasite or virus in culture. The following applies: Murine coronavirus.
A short description of assay [5]: Inhibition of Acinetobacter baumannii […] assessed as measuring NADH consumption rate.
In assay [6] the test system is Escherichia coli. The assay can be described thus: Antibacterial activity against Escherichia coli AG100 assessed as minimal inhibitory concentration. The format is functional.
A further assay concerns Acinetobacter baumannii. The assay can be described thus: Antibacterial activity against Acinetobacter baumannii ATCC BAA1605 assessed as minimal inhibitory concentration. It is filed as functional.
Another assay relates to Staphylococcus aureus. The assay can be described thus: Antibacterial activity against Staphylococcus aureus ATCC 29213 assessed as minimal inhibitory concentration. It is filed as functional.

Each structure is given as a SMILES string. In brackets after ≈: the same amount, converted by molar mass.

The term EC50 denotes the concentration giving half of the maximal effect. By IC50 is commonly meant the midpoint of a concentration-inhibition curve. Turning to `CC(C)C[C@H](NC(=O)OCC1CCC(F)(F)CC1)C(=O)N[C@H](C=O)C[C@H]1CCNC1=O`, the EC50 stood at 30 nM in assay [1] and 80 nM in assay [2]. Also, the IC50 in the assay with SARS-CoV-2 worked out at 900 nM.

In general, MIC refers to the lowest concentration that inhibits growth of the organism. For `COc1c(/C=C(\F)c2ccc(NC(=O)[C@H](CC#N)NC(=O)c3ccc(NC(=O)/C(C)=C/c4ccc(O)cc4)cc3)cc2)ccc(C(=O)Nc2ccc(C(=O)O)c(O)c2OC)c1O`, the MIC with Escherichia coli [3] is less than 0.063 µg/mL; in the assay on Salmonella typhimurium, 0.031 µg/mL (≈ 0.0367 µM); with Bacillus subtilis it was 0.031 µg/mL (≈ 0.0367 µM); in the assay on Mycolicibacterium phlei it was 0.25 µg/mL (≈ 0.296 µM).

Regarding `COc1c(/C=C/c2ccc(NC(=O)[C@H](CC#N)NC(=O)c3ccc(NC(=O)/C(C)=C/c4ccc(O)cc4)cc3)cc2)ccc(C(=O)Nc2ccc(C(=O)O)c(O)c2OC)c1O`, the MIC in the assay with Escherichia coli [3] worked out at 0.125 µg/mL (≈ 0.151 µM); in the assay with Salmonella typhimurium, 0.063 µg/mL (≈ 0.0763 µM); in the assay on Bacillus subtilis, 0.063 µg/mL (≈ 0.0763 µM); with Mycolicibacterium phlei, 0.5 µg/mL (≈ 0.605 µM).

For the compound `CC(C)C[C@H](NC(=O)OC1CCC(F)(F)CC1)C(=O)N[C@@H](C[C@H]1CCNC1=O)C(O)S(=O)(=O)O` (some centres not stated), the values for the EC50 (in [1]; in the assay with Murine hepatitis virus; in assay [2]) were 210 nM, 110 nM and 120 nM, respectively. The IC50 amounted to 80 nM in assay [4], 2200 nM in the assay with SARS-CoV and 1600 nM in the assay with SARS-CoV-2.

Take `COc1c(NC(=O)c2ccc(-c3cc4ccc(-c5ccc(NC(=O)[C@H](CC#N)NC(=O)c6ccc(NC(=O)/C(C)=C/c7ccc(O)cc7)cc6)cc5)cc4o3)c(OC)c2O)ccc(C(=O)O)c1O`: the minimum inhibitory concentration (MIC) turned out to be 1 µg/mL (≈ 1.09 µM) in the assay with Escherichia coli [3], 0.125 µg/mL (≈ 0.136 µM) in the assay on Salmonella typhimurium, 0.25 µg/mL (≈ 0.273 µM) with Bacillus subtilis and 1 µg/mL (≈ 1.09 µM) in the assay on Mycolicibacterium phlei.

`CCCCC1CCC(OC(=O)N[C@@H](CC(C)C)C(=O)N[C@@H](C[C@H]2CCNC2=O)C(O)S(=O)(=O)O)CC1` (some centres not stated): the EC50 in assay [1] worked out at 530 nM; in the assay on Murine hepatitis virus, 130 nM; in assay [2], 170 nM. Moreover, the figures for the IC50 (in assay [4]; with SARS-CoV; in the assay on SARS-CoV-2) were 130 nM, 1000 nM and 1100 nM, respectively.

As to `COc1c(NC(=O)c2ccc(-c3ccc4[nH]c(-c5ccc(NC(=O)[C@H](CC#N)NC(=O)c6ccc(NC(=O)/C(C)=C/c7ccc(O)cc7)cc6)cc5)nc4c3)c(OC)c2O)ccc(C(=O)O)c1O`, the MIC is 0.25 µg/mL (≈ 0.273 µM) in the assay on Escherichia coli [3], 0.063 µg/mL (≈ 0.0688 µM) in the assay with Salmonella typhimurium, 2 µg/mL (≈ 2.18 µM) with Bacillus subtilis and 8 µg/mL (≈ 8.73 µM) in the assay on Mycolicibacterium phlei.

`CC(C)C[C@H](NC(=O)OC1CCCCC1)C(=O)N[C@@H](C[C@H]1CCNC1=O)C(O)S(=O)(=O)O` (some centres not stated): the EC50 in [1] was 80 nM; in the assay with Murine hepatitis virus, 80 nM; in [2], 70 nM. The IC50 amounted to 150 nM in assay [4], 3800 nM in the assay with SARS-CoV and 3500 nM in the assay with SARS-CoV-2.

For `Cc1oc2c(N)cccc2c1CN(C)C(=O)/C=C/c1cnc2c(c1)N[C@H](C)[C@H](N)C(=O)N2`, the IC50 in assay [5] is less than 10 nM. The MIC in the assay with Escherichia coli [6], in the assay on Acinetobacter baumannii and with Staphylococcus aureus was no more than 4 µg/mL in each case.

Regarding `COc1c(CCc2ccc(NC(=O)[C@H](CC#N)NC(=O)c3ccc(NC(=O)/C(C)=C/c4ccc(O)cc4)cc3)cc2)ccc(C(=O)Nc2ccc(C(=O)O)c(O)c2OC)c1O`, the MIC with Escherichia coli [3] amounted to 0.25 µg/mL (≈ 0.302 µM); in the assay on Salmonella typhimurium it was 0.25 µg/mL (≈ 0.302 µM); in the assay on Bacillus subtilis, 0.063 µg/mL (≈ 0.0761 µM); in the assay with Mycolicibacterium phlei it was 1 µg/mL (≈ 1.21 µM).

With `COc1c(C#Cc2ccc(NC(=O)[C@H](CC#N)NC(=O)c3ccc(NC(=O)/C(C)=C/c4ccc(O)cc4)cc3)cc2)ccc(C(=O)Nc2ccc(C(=O)O)c(O)c2OC)c1O`, the minimal inhibitory concentration (MIC) with Escherichia coli [3] was less than 0.063 µg/mL; in the assay with Salmonella typhimurium, no more than 0.016 µg/mL; in the assay on Bacillus subtilis, 0.063 µg/mL (≈ 0.0765 µM); in the assay on Mycolicibacterium phlei, 0.5 µg/mL (≈ 0.607 µM).

As to `Cc1c(CN(C)C(=O)/C=C/c2cnc3c(c2)N[C@H](C)[C@H](N)C(=O)N3)oc2ccccc12`, the IC50 in [5] was less than 10 nM. Also, the minimal inhibitory concentration (MIC) in the assay on Escherichia coli [6], with Acinetobacter baumannii and in the assay with Staphylococcus aureus was no more than 4 µg/mL each time.

Consider `COc1c(NC(=O)c2ccc(NC(=O)c3ccc(NC(=O)[C@H](Cc4nn[nH]n4)NC(=O)c4ccc(NC(=O)/C(C)=C/c5ccc(O)cc5)cc4)cc3)c(OC)c2O)ccc(C(=O)O)c1O`, for which the MIC turned out to be 0.063 µg/mL (≈ 0.0711 µM) with Escherichia coli [3], 0.063 µg/mL (≈ 0.0711 µM) in the assay with Salmonella typhimurium, 0.25 µg/mL (≈ 0.282 µM) in the assay with Bacillus subtilis and 2 µg/mL (≈ 2.26 µM) in the assay on Mycolicibacterium phlei.
